From patent publication US7132447B2, “Substance FKI-1083 and process for producing the same” (The Kitasato Institute, priority 2001, dated 2006)
Values after ≈ are worked out from the molar mass of the structure shown.

What was measured:
[1] = test system: Aspergillus niger ATCC6275; experiment: MIC by agar plate dilution method on nutrient agar medium; type: cell-based
Mucor racemosus IF04581 = experiment: as above; type: cell-based
[2] = test system: Xanthomonas campestris pv. oryzae KB88; experiment: microbe, parasite or virus in culture; type: cell-based
NADH-fumarate reductase = NADH-fumarate reductase inhibitory activity, Ascaris suum muscle mitochondria fraction, NADH absorption at 340 nm; type: biochemical; details: 37° C., pH 7.0, read-out: concentration showing 50% inhibition of NADH-fumarate reductase activity
Method: Ascaris suum muscle was homogenized in 120 mM sodium phosphate solution (pH 7.0) and centrifuged at 3000×g for 10 minutes to collect the supernatant solution. The solution was further centrifuged at 10000×g for 20 minutes to collect the precipitate. The precipitate was suspended in 120 mM sodium phosphate solution (pH 7.0) to prepare mitochondria fraction. 50% dimethyl sulfoxide solution of FKI-1083 substance 10 μl was added to 96 well microplate. 120 mM sodium phosphate solution (pH 7.0) 80 μl containing 0.35 mM NADH and 7.2 mM disodium fumarate was added thereto and preincubated at 37° C. for 5 minutes in the microplate reader ELX808 (Bio-Tek Industries Inc., the U.S.). Mitochondria fraction of Ascaris suum muscle 10 μl (0.3 mg protein) was added thereto, incubated at 37° C. for 10 minutes and measured absorption of NADH at 340 nm in every 15 seconds. A gradient of the decrease in absorption at 340 nm was assayed as NADH-fumarate reductase activity. […] Consequently, FKI-1083 substance can be expected as a composition for treatment or prevention of helminthiasis.

[3] = test system: Mycobacterium smegmatis ATCC607; experiment: MIC by agar plate dilution method on nutrient agar medium; type: cell-based; details: Mycolicibacterium smegmatis
Escherichia coli NIHJ = experiment: as above; type: cell-based
[4] = test system: Micrococcus luteus ATCC9341; experiment: as above; type: cell-based
[5] = test system: Staphylococcus aureus ATCC6538p; experiment: as above; type: cell-based
[6] = test system: Bacillus subtilis ATCC6633; experiment: as above; type: cell-based
[7] = test system: Pseudomonas aeruginosa IF03080; experiment: as above; type: cell-based
Candida albicans KF1 = experiment: as above; type: cell-based
Artemia salina = experiment: Anthropodicidal activity, movement of nauplius larvae observed under microscope in 96 well plate; type: in vivo
Method: (§1) Methanol solution of FKI-1083 substance of the present invention was added to a 96 well plate (Corning Inc., the U.S.). […] A test medium (lecithin 0.01%, sodium hydrogen carbonate 7.5 mM, potassium chloride 7.5 mM, calcium chloride dihydrate 7.5 mM, and magnesium sulfate heptahydrate 7.5 mM) 250 μl was added thereto and shaken for 15 minutes. Approximately 10 Caenorhabditis elegans cultured on the agar medium for nematode growth [a medium in which E. coli was cultured on a medium consisting of bactoagar (DIFCO Inc., the U.S.) 1.7%, bactopeptone (DIFCO Inc., the U.S.) 0.5%, yeast extract (DIFCO Inc., the U.S.) 1.0%, sodium chloride 0.3%, cholesterol 0.0005%, calcium chloride 0.007%, magnesium sulfate 0.03%, dipotassium hydrogen phosphate 0.34%, and potassium dihydrogen phosphate 0.11%] were added thereto. Separately, a buffer solution 50 μl containing several numbers of nauplius larvae of Artemia salina hatched in the buffer (Tris 0.24%, sodium chloride 2.57%, magnesium chloride 0.47%, potassium chloride 0.07%, sodium carbonate 0.02%, magnesium sulfate 0.64% and calcium chloride 0.11%, pH 7.1) was added. Conditions of these nematode and arthropod were observed under microscope. […] Consequently, FKI-1083 substance of the present invention is useful as anthelmintic and insecticide.

[8] = test system: Escherichia coli NIHJ JC-2 (IF012734); experiment: MIC by agar plate dilution method on nutrient agar medium; type: cell-based; details: NIHJJC2
Caenorhabditis elegans = experiment: Nematocidal activity, movement observed under microscope in 96 well plate; type: in vivo
Method: as §1

[9] = test system: Saccharomyces cerevisiae KF26; experiment: MIC by agar plate dilution method on nutrient agar medium; type: cell-based
Excerpt: Minimum inhibitory concentration (MIC) of FKI-1083 substance of the present invention against various microorganisms on nutrient agar medium by agar plate dilution method is shown in Table 3.

CCCCCCCC/C(C)=C/Cc1oc(OC)c(C)c(=O)c1C [FKI-1083 substance]
MIC [1]: > 100 µg/mL
MIC (Mucor racemosus IF04581): > 100 µg/mL
MIC [2]: > 100 µg/mL
IC50 (NADH-fumarate reductase): 4.1 nM
MIC [3]: 12.5 µg/mL (≈ 39 µM)
MIC (Escherichia coli NIHJ): > 100 µg/mL
MIC [4]: 6.25 µg/mL (≈ 19.5 µM)
MIC [5]: 6.25 µg/mL (≈ 19.5 µM)
MIC [6]: 6.25 µg/mL (≈ 19.5 µM)
MIC [7]: > 100 µg/mL
MIC (Candida albicans KF1): > 100 µg/mL
concentration at which movement was inhibited (Artemia salina): 2 µg/mL
MIC [8]: > 100 µg/mL
concentration at which movement was inhibited (Caenorhabditis elegans): 20 µg/mL
MIC [9]: > 100 µg/mL
